In the supplement of paper PMC10331698:
± gives the standard deviation of the averaged measurements.

Columns and labels:
Assay in all cases: level (log10 ratio to DMSO vehicle control); higher = higher biomarker level / cell amount than vehicle control
[1] = compound: C=C(C)C(=O)OCCC(F)(F)C(F)(F)C(F)(F)C(F)(F)C(F)(C(F)(F)F)C(F)(F)F [(Perfluoro-5-methylhexyl)ethyl 2-methylprop-2-enoate]; details: in DMSO
Procedure: (§1)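 BioMAP Diversity Plus panel of 12 human primary cell co-culture systems (3C, 4H, LPS, SAg, BT, BF4T, BE3C, CASM3C, HDF3CGF, KF3CT, MyoF, Mphg). Compounds were added 1 h before stimulation and left for 24 h (MyoF 48 h; BT 72 h for soluble read-outs or 6 d for IgG). Biomarkers were read by ELISA, cytotoxicity by SRB, PBMC viability and proliferation by Alamar Blue. Each well value was divided by the mean of 8 DMSO control wells on the same plate and log10 transformed; duplicate blinded samples were tested at 4 concentrations.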

[2] = compound: FC(F)C(F)(F)COCC1CO1 [((2,2,3,3-Tetrafluoropropoxy)methyl)oxirane]; details: in DMSO
Procedure: as §1

[3] = compound: O=C(O)C(F)(F)C(F)(F)C(F)(F)OC(F)(C(F)(F)F)C(F)(F)F [Perfluoro-4-isopropoxybutanoic acid]; details: in DMSO
Procedure: as §1

[4] = compound: FC(F)(F)C(F)(F)C(F)(F)C(F)(F)C(F)(F)C(F)(F)C(F)(F)C(F)(F)CCS [2-(Perfluorooctyl)ethanthiol]; details: in DMSO
Procedure: as §1

[5] = compound: C=CC(F)(F)C(F)(F)C(F)(F)C(F)(F)C(F)(F)C(F)(F)C(F)(F)C(F)(F)C=C [1,8-Divinylperfluorooctane]; details: in DMSO
Procedure: as §1

[6] = compound: O=C(O)C(F)(F)C(F)(F)C(F)(F)C(F)(F)C(F)(F)C(F)(F)C(F)(F)C(F)F [9-H-Perfluorononanoic acid]; details: in DMSO
Procedure: as §1

[7] = compound: OCCCC(F)(F)C(F)(F)C(F)(F)C(F)(F)C(F)(F)C(F)(F)C(F)(F)F [7:3 Fluorotelomer alcohol]; details: 6700 nM; in DMSO
Procedure: as §1

[8] = compound: NCC(F)(F)C(F)(F)C(F)(F)C(F)(F)C(F)(F)C(F)(F)C(F)(F)F [1H,1H-Perfluorooctylamine]; details: in DMSO
Procedure: as §1

Test System | level (log10) ([1]; 6700 nM) | level (log10) ([1]; 20000 nM) | level (log10) ([2]; 6700 nM) | level (log10) ([2]; 20000 nM) | level (log10) ([2]; 60000 nM) | level (log10) ([3]; 6700 nM) | level (log10) ([3]; 20000 nM) | level (log10) ([3]; 60000 nM) | level (log10) ([4]; 6700 nM) | level (log10) ([4]; 20000 nM) | level (log10) ([5]; 6700 nM) | level (log10) ([5]; 20000 nM) | level (log10) ([6]; 6700 nM) | level (log10) ([6]; 20000 nM) | level (log10) ([6]; 60000 nM) | level (log10) [7] | level (log10) ([8]; 6700 nM) | level (log10) ([8]; 20000 nM) | level (log10) ([8]; 60000 nM)
MyoF:CD106/VCAM-1 | 0.0095 ± 0.0092 | -0.013 ± 0.0028 | -0.0075 ± 0.0035 | -0.025 ± 0.031 | -0.011 ± 0.044 | -0.023 ± 0.017 | 0.0095 ± 0.0035 | -0.001 | 0.0155 ± 0.00071 | -0.0735 ± 0.083 | 0.006 ± 0.0042 | 0.0075 ± 0.018 | -0.015 ± 0.02 | -0.0135 ± 0.005 | -0.0125 ± 0.025 | -0.013 ± 0.011 | -0.007 ± 0.0085 | -0.0295 ± 0.011 | 0.002 ± 0.013
MyoF:CXCL8/IL-8 | -0.011 ± 0.011 | -0.0255 ± 0.0064 | -0.0175 ± 0.005 | -0.0145 ± 0.018 | 0.0095 ± 0.025 | 0.0195 ± 0.06 | 0.077 ± 0.079 | 0.0735 ± 0.074 | -0.0085 ± 0.011 | 0.007 ± 0.016 | -0.028 ± 0.014 | 0.0085 ± 0.035 | 0.021 ± 0.023 | 0.003 ± 0.013 | -0.001 ± 0.023 | 0.017 ± 0.052 | 0.0025 ± 0.021 | -0.0095 ± 0.0035 | -0.002 ± 0.023
MyoF:Collagen I | -0.0325 ± 0.037 | -0.037 ± 0.02 | 0.01 ± 0.0014 | -0.005 ± 0.016 | 0.0155 ± 0.023 | -0.0045 ± 0.0035 | -0.0035 ± 0.021 | 0.0075 ± 0.016 | -0.001 ± 0.042 | -0.0265 ± 0.029 | -0.0145 ± 0.016 | -0.005 ± 0.0028 | 0.0035 ± 0.0021 | 0.0025 ± 0.0035 | -0.0365 ± 0.0092 | -0.0125 ± 0.011 | 0.012 ± 0.014 | -0.016 ± 0.0042 | 0.013 ± 0.021
MyoF:Collagen III | -0.0135 ± 0.052 | -0.0455 ± 0.04 | -0.0045 ± 0.0035 | -0.0105 ± 0.005 | -0.005 | -0.0095 ± 0.011 | -0.001 ± 0.0014 | 0.0025 ± 0.021 | -0.0105 ± 0.015 | -0.0345 ± 0.018 | -0.02 ± 0.0071 | -0.0115 ± 0.012 | -0.002 ± 0.0085 | -0.003 ± 0.0042 | -0.026 ± 0.018 | -0.0035 ± 0.012 | -0.007 ± 0.0057 | 0.003 ± 0.014 | 0.01
MyoF:Collagen IV | 0.025 ± 0.02 | 0.058 ± 0.1 | -0.0035 ± 0.013 | -0.0065 ± 0.016 | 0.0065 ± 0.025 | -0.007 ± 0.035 | -0.0025 ± 0.06 | 0.014 ± 0.047 | -0.009 ± 0.09 | 0.012 ± 0.05 | -0.023 ± 0.0085 | 0.0115 ± 0.044 | 0.039 ± 0.037 | 0.0365 ± 0.018 | 0.082 ± 0.03 | -0.02 ± 0.0085 | -0.0035 ± 0.018 | -0.009 ± 0.016 | -0.0055 ± 0.0035
MyoF:Decorin | -0.006 ± 0.037 | 0.008 ± 0.052 | -0.0065 ± 0.0035 | -0.007 ± 0.0071 | 0.0075 ± 0.012 | 0.008 ± 0.0057 | 0.023 ± 0.027 | 0.065 ± 0.061 | -0.0145 ± 0.018 | -0.0105 ± 0.033 | 0.0075 ± 0.013 | 0.0335 ± 0.022 | 0.0315 ± 0.0035 | 0.051 ± 0.0071 | 0.093 ± 0.016 | 0.0355 ± 0.059 | -0.016 ± 0.011 | -0.025 ± 0.017 | -0.027 ± 0.0099
MyoF:MMP-1 | -0.023 ± 0.0057 | -0.0365 ± 0.074 | 0.0115 ± 0.0035 | -0.031 ± 0.018 | 0.0045 ± 0.005 | -0.0155 ± 0.0092 | 0.0115 ± 0.013 | 0.045 ± 0.051 | -0.0265 ± 0.0092 | -0.0545 ± 0.037 | -0.054 ± 0.037 | 0.034 ± 0.099 | -0.015 ± 0.0099 | -0.005 | -0.0215 ± 0.023 | -0.004 | -0.0095 ± 0.016 | -0.0395 ± 0.012 | -0.0055 ± 0.025
MyoF:PAI-I | -0.0025 ± 0.011 | -0.019 ± 0.0085 | -0.008 ± 0.0028 | -0.002 ± 0.0085 | -0.0115 ± 0.0064 | -0.0035 ± 0.015 | -0.007 ± 0.0042 | 0.006 ± 0.018 | -0.001 ± 0.0042 | -0.0005 ± 0.012 | 0.003 ± 0.0071 | 0.006 ± 0.0071 | -0.0075 ± 0.011 | 0.004 ± 0.0042 | -0.0025 ± 0.0092 | 0.0015 ± 0.0035 | 0 ± 0.016 | -0.002 ± 0.014 | -0.005 ± 0.013
MyoF:SRB | 0.001 ± 0.014 | -0.0035 ± 0.0078 | -0.003 | -0.007 ± 0.0042 | -0.0035 ± 0.0035 | -0.0055 ± 0.0021 | 0.0015 ± 0.00071 | -0.0035 ± 0.0064 | -0.0005 ± 0.0092 | 0.0025 ± 0.0021 | 0.0165 ± 0.013 | 0.006 ± 0.0057 | 0.015 ± 0.0042 | 0.003 | -0.0105 ± 0.0064 | 0.006 ± 0.0071 | 0.0035 ± 0.0021 | -0.002 ± 0.0057 | 0.0005 ± 0.005
MyoF:TIMP-1 | -0.031 ± 0.023 | -0.024 ± 0.0057 | 0.0165 ± 0.018 | -0.0295 ± 0.0092 | -0.001 ± 0.023 | 0.0135 ± 0.059 | 0.0705 ± 0.083 | 0.0855 ± 0.1 | -0.033 ± 0.014 | -0.0215 ± 0.005 | -0.0315 ± 0.054 | 0.01 ± 0.076 | 0.0495 ± 0.044 | 0.0665 ± 0.019 | 0.117 ± 0.037 | 0.003 ± 0.017 | 0.0045 ± 0.0092 | 0.01 ± 0.025 | -0.0005 ± 0.0021
MyoF:alpha-SM Actin | -0.018 ± 0.037 | -0.0255 ± 0.04 | -0.0185 ± 0.019 | 0.0015 ± 0.022 | -0.0075 ± 0.03 | 0.0045 ± 0.023 | 0.008 ± 0.033 | 0.026 ± 0.052 | -0.0145 ± 0.036 | -0.103 ± 0.037 | -0.016 ± 0.0042 | -0.0155 ± 0.028 | -0.0215 ± 0.019 | -0.0245 ± 0.013 | -0.049 ± 0.014 | 0.0125 ± 0.0092 | -0.017 ± 0.075 | 0.0285 ± 0.0078 | 0.042
MyoF:bFGF | -0.0015 ± 0.005 | 0.002 ± 0.0014 | 0.012 ± 0.0057 | 0.0095 ± 0.0035 | 0.012 ± 0.011 | -0.014 ± 0.016 | -0.0225 ± 0.026 | -0.004 ± 0.027 | -0.0075 ± 0.019 | -0.017 ± 0.0014 | 0.001 ± 0.0099 | 0.012 ± 0.02 | -0.0025 ± 0.021 | 0.0015 ± 0.012 | -0.0055 ± 0.018 | -0.006 ± 0.0028 | 0.0095 ± 0.028 | 0 ± 0.014 | 0.019 ± 0.0099
